Measurements taken from PMC4897788, “Design, biological evaluation and 3D QSAR studies of novel dioxin-containing pyrazoline derivatives with thiourea skeleton as selective HER-2 inhibitors” (Scientific Reports, 2016).

Columns and labels:
[1] = test system: MCF-7 human breast cancer cell line; assay: Anti-proliferation assay (MTT), MCF-7; format: cell-based; settings: MCF7, 24 h
Experimental: MCF-7 human breast cancer cells was cultured in DMEM/10% fetal bovine serum, in 5% CO2 water saturated atmosphere at 37 °C. MDA-MB-453 human breast cancer cells was cultured in L-15 medium in 100% air at 37 °C. Cell suspensions (10000/mL) were prepared and 100 μL/well dispensed into 96-well plates (Costar) giving 1000 cells/well. The plates were returned to the incubator for 24 h to allow the cells to reattach. These compounds were initially prepared at 20 mM in DMSO. Aliquots (200 μL) were diluted into 20 mL culture medium giving 200 μM, and 10 serial dilutions of 3× prepared. Aliquots (100 μL) of each dilution were added to the wells, giving doses ranging from 100 μM to 0.005 μM. After a further incubated at 37 °C for 24 h in a humidified atmosphere with 5% CO2, the cell viability was assessed by the conventional 3-(4,5-dimethylthiazol-2-yl)-2,5-diphenyltetrazolium bromide (MTT) reduction assay and carried out strictly according to the manufacturer instructions (Sigma). The absorbance at 590 nm was recorded using LX300 Epson Diagnostic micro-plate reader. Then GI50 was calculated using SPSS 13.0 software.

[2] = test system: Caspase3; assay: Western blot Caspase3 in MDA-MB-453; format: cell-based, human; settings: increasing C20 levels
Experimental: After incubation with compound, cells were harvested and washed with PBS, then lysed in lysis buffer (30 mm Tris, pH 7.5, 150 mm NaCl, 1 mm phenylmethylsulfonyl fluoride, 1 mm Na3VO4, 1% Nonidet P-40, 10% glycerol, and phosphatase and protease inhibitors). After centrifugation at 12,000 g for 5 min, the supernatant was collected as total protein. The concentration of the protein was determined by a BCATM protein assay kit (Pierce, Rockford, IL, USA). The protein samples were separated by 10% SDS–PAGE and subsequently electrotransferred onto a polyvinylidene difluoride membrane (Millipore, Bedford, MA, USA). The membrane was blocked with 5% non-fat milk for 2 h at room temperature. The blocked membrane was probed with the indicated primary antibodies overnight at 4 °C, and then incubated with a horse radish peroxidase (HRP)-coupled secondary antibody.

[3] = target: T1, FAK (Homo sapiens, UniProt Q05397); assay: FAK inhibitory assay (Kinase-Glo); format: biochemical
T1 construct: human-recombinant full-length FAK
Experimental: Selected compounds were tested against FAK. In a typical study, human-recombinant full-length FAK was incubated in kinase buffer containing ATP and the substrate for 4 h at room temperature with or without the presence of the corresponding coumpounds. The final concentration of drug as 100, 30, 10, 3 μg/mL. The remaining ATP in solution was then quantified utilizing the Kinase-Glo-luminescence kit (Promega).

[4] = target: T2, HER-3 (Homo sapiens, UniProt P21860); assay: HER-3 inhibitory assay; format: biochemical
T2 construct: HER-3 cytoplasmic domain (HER-3-CD, amino acids 665–1339); His6 (N); made in house
T2 sequence (P21860 665-1339): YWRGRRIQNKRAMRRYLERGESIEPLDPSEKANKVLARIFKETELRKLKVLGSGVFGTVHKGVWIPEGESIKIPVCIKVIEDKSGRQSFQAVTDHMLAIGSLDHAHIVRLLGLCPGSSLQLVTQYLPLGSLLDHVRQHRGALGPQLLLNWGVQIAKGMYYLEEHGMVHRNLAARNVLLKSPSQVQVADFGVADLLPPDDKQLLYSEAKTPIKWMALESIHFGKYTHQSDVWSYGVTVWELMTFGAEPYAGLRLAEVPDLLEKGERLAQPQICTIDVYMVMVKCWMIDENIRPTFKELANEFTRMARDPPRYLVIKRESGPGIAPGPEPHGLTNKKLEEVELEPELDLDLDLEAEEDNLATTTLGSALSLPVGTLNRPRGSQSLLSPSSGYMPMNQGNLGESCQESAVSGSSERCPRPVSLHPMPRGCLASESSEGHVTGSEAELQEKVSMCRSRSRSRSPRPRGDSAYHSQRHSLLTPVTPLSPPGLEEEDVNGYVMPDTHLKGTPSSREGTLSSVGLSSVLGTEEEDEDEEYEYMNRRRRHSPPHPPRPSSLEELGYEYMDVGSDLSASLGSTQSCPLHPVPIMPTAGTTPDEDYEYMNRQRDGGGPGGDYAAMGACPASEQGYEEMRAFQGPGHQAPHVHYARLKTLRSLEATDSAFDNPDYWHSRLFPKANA
Experimental: A sequence that encodes (His)6 was located at the 5′ upstream to the HER-2 and EGFR sequences. Sf-9 cells were infected for 3 days for protein expression. Sf-9 cell pellets were solubilized at 0 °C in a buffer at pH 7.4 containing 50 mM HEPES, 10 mM NaCl, 1% Triton, 10 μM ammonium molybdate, 100 μM sodium vanadate, 10 μg/mL aprotinin, 10 μg/mL leupeptin, 10 μg/mL pepstatin, and 16 μg/mL benzamidine, HCl for 20 min followed by 20 min centrifugation. Crude extract supernatant was passed through an equilibrated Ni–NTA superflow packed column and washed with 10 mM and then 100 mM imidazole to remove nonspecifically bound material. Histidine-tagged proteins were eluted with 250 and 500 mM imidazole and dialyzed against 50 mM NaCl, 20 mM HEPES, 10% glycerol and 1 μg/mL each of aprotinin, leupeptin, and pepstatin for 2 h. The entire purification procedure was performed at 4 °C or on ice.
A 1.8 Kb cDNA encoded for human HER-3 cytoplasmic domain (HER-3-CD, amino acids 665–1339) was applied to perform the experiment using the same method as EGFR/HER-2.

[5] = Cytotoxicity test (MTT), NIH-3T3; format: cell-based; settings: mouse, NIH-3T3 mouse embryonic fibroblast cells, NIH3T3
Experimental: The cytotoxic activity in vitro was measured against mouse fibroblast NIH-3T3 cell using the MTT assay. Cells were cultured in a 96-well plate at a density of 5 × 10^5 cells and different concentrations of compounds were respectively added to each well. The incubation was permitted at 37 °C, 5% CO2 atmosphere for 24 h before the cytotoxicity assessments. 20 μL MTT reagent (4 mg/mL) was added per well 4 h before the end of the incubation. Four hours later, the plate was centrifuged at 1200 rcf for 5 min and the supernatants were removed, each well was added with 200 μL DMSO. The absorbance was measured at a wavelength of 490 nm (OD 490 nm) on an ELISA microplate reader. Three replicate wells were used for each concentration and each assay was measured three times, after which the average of IC50 was calculated. The cytotoxicity of each compound was expressed as the concentration of compound that reduced cell viability to 50% (IC50).

T1 sequence (Q05397 whole entry): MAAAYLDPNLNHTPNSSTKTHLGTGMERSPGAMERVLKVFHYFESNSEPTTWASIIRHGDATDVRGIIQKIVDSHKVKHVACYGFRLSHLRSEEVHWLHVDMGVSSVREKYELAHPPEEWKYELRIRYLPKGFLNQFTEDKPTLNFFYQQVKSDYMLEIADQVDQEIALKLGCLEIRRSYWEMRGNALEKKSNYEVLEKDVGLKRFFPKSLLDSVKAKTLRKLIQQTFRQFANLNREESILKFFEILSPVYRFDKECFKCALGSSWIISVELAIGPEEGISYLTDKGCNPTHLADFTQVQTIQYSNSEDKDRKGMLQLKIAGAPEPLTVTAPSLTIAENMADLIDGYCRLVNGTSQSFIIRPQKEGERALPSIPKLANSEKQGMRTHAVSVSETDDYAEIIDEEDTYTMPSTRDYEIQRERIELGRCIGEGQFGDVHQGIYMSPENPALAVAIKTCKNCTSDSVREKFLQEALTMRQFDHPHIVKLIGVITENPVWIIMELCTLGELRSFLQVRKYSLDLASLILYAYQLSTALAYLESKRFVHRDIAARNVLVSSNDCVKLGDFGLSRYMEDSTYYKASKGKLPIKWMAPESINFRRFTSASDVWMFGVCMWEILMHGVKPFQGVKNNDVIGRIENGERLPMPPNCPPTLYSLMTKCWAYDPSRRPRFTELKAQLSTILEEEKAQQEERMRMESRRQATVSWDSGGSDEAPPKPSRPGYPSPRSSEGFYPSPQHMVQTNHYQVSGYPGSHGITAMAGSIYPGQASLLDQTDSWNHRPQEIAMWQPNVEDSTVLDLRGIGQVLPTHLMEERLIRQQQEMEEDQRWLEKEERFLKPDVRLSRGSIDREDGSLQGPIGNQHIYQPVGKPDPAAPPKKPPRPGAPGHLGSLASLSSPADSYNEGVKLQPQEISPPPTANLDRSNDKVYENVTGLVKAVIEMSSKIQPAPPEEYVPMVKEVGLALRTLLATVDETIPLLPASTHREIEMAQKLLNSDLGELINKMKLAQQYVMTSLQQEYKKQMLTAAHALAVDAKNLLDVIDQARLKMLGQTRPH

Question: Which GI50 [1] does the source give for `COc1ccc(C2CC(c3ccc4c(c3)OCCO4)=NN2C(N)=S)cc1OC` (centres unmarked) [Compound C20, 3-(2,3-dihydrobenzo[b][1,4]dioxin-6-yl)-5-(3,4-dimethoxyphenyl)-4,5-dihydro-1H-pyrazole-1-carbothioamide] here?
Answer: Its GI50 is 11.9 ± 1.06 µM.

Question: What about the Caspase3 levels [2] of the same molecule?
Answer: The Caspase3 levels was “corresponding increase”.

Question: And the IC50 [3]?
Answer: Its IC50 is 56.2 ± 5.48 µM.

Question: And the IC50 [4]?
Answer: The IC50 was 5.2 ± 0.46 µM.

Question: What about the GI50 at 24 h [5] of the same molecule?
Answer: The GI50 at 24 h was 274 ± 3.61 µM.
